Measured values taken from PMC12564265, “Navigating the Deep Eutectic Solvent Landscape: Experimental and Machine Learning Solubility Explorations of Syringic, p-Coumaric, and Caffeic Acids” (International Journal of Molecular Sciences, 2025).
“And” between values parts separate entries of the source, which are not always exact repeats. Identical values can stand only once.

Assay: Shake-flask solubility with spectrophotometric measurement in aqueous DES mixtures
Type: physicochemical
Details: for Increase in the solubility compared to the neat DES: 25 °C
Procedure: In order to determine the solubility of the three studied phenolic acids in deep eutectic solvents, a very well-established shake-flask method coupled with spectrophotometric measurements was utilized. The initial procedure involved the preparation of various DESs, which was conducted by mixing their HBA and HBD counterparts in a glass vessel and heating the composition until the formation of a transparent, uniform liquid. […] For additional measurements, the DESs were mixed with water in varying proportions, creating aqueous DES systems. Saturated solutions of CAF, SYR, and COU were obtained by adding excess amounts of these compounds to test tubes containing either a neat deep eutectic solvent or its aqueous solution. Such samples were placed in the Orbital Shaker Incubator ES-20/60 from Biosan (Riga, Latvia) and heated for 24 h at 25 °C, 30 °C, 35 °C, and 40 °C (±0.1 °C) with simultaneous mixing at 60 rpm. Before measurements, the samples were filtered using a PTFE syringe filter from Qpore (Dallas, TX, USA) with a 0.22 μm pore size. In order to avoid possible precipitation of the saturated solutions at decreased temperatures, the test tubes, syringes, pipette tips, and filters were kept at a temperature identical to that of the samples. The spectrophotometric measurements required the preparation of calibration curves for the three APIs. This involved the preparation of a stock solution of each compound in methanol, which was later successfully diluted, and the obtained solutions of varying concentrations were measured using an A360 spectrophotometer from AOE Instruments (Shanghai, China). The wavelength range was set to 200-500 nm, and the resolution was 1 nm. The analytical wavelengths were determined to be 324 nm for caffeic acid, 273 nm for syringic acid, and 308 nm for p-coumaric acid. The final regression equations, obtained after averaging three distinct sets of measurements, are collected in Table 2 together with determination coefficients and limits of detection (LOD) and quantification (LOQ) for the calibration curves. The measurements of the samples were conducted with the same spectrophotometer and identical settings. Methanol was used for the dilution of the samples so that they could remain within the linearity range of the method. Complete spectra of the samples were recorded, but for the solubility determination, the absorbance values at a specific analytical wavelength were considered. These values were combined with the corresponding regression equations of the calibration curves and served for the calculation of the concentration of the three phenolic acids in the studied samples. The densities of such samples were also measured, and for this task 1 mL of each sample was weighed to a precision of 0.1 mg using an AS 110 R2.PLUS analytical balance from […] (Radom, Poland). The obtained densities enabled the calculation of mole fractions of CAF, SYR, and COU dissolved in the studied DESs. For each considered system, three distinct measurements were conducted, and the results were averaged.

O=C(O)C=Cc1ccc(O)cc1 [p-coumaric acid, 4-hydroxycinnamic acid]
Mole fraction solubility (Bet – GLY 1:2 + water, x*DES 0.9, 30°C): 0.1149±0.0011 mole fraction
Mole fraction solubility (Bet – GLY 1:2 + water, x*DES 0.9, 35°C): 0.1464±0.0025 mole fraction
Mole fraction solubility (Bet – GLY 1:2 + water, x*DES 0.9, 40°C): 0.1934±0.0021 mole fraction
Mole fraction solubility (Bet – GLY 1:2, x*DES 1.0 (neat DES), 25°C): 0.0898±0.0003 mole fraction
Mole fraction solubility (Bet – GLY 1:2, x*DES 1.0 (neat DES), 30°C): 0.1090±0.0010 mole fraction
Mole fraction solubility (Bet – GLY 1:2, x*DES 1.0 (neat DES), 35°C): 0.1389±0.0009 mole fraction
Mole fraction solubility (Bet – GLY 1:2, x*DES 1.0 (neat DES), 40°C): 0.1842±0.0017 mole fraction
Increase in the solubility compared to the neat DES (Bet-GLY 1:2, x*DES = 0.9 (xwater = 0.1)): 3%
Mole fraction solubility (ChCl – TEG 1:2 + water, x*DES 0.1, 25°C): 0.0131±0.0002 mole fraction
Mole fraction solubility (ChCl – TEG 1:2 + water, x*DES 0.1, 30°C): 0.0168±0.0002 mole fraction
Mole fraction solubility (ChCl – TEG 1:2 + water, x*DES 0.1, 35°C): 0.0216±0.0002 mole fraction
Mole fraction solubility (ChCl – TEG 1:2 + water, x*DES 0.1, 40°C): 0.0287±0.0003 mole fraction
Mole fraction solubility (ChCl – TEG 1:2 + water, x*DES 0.2, 25°C): 0.0283±0.0002 mole fraction
Mole fraction solubility (ChCl – TEG 1:2 + water, x*DES 0.2, 30°C): 0.0357±0.0002 mole fraction
Mole fraction solubility (ChCl – TEG 1:2 + water, x*DES 0.2, 35°C): 0.0459±0.0004 mole fraction
Mole fraction solubility (ChCl – TEG 1:2 + water, x*DES 0.2, 40°C): 0.0604±0.0004 mole fraction
Mole fraction solubility (ChCl – TEG 1:2 + water, x*DES 0.3, 25°C): 0.0412±0.0004 mole fraction
Mole fraction solubility (ChCl – TEG 1:2 + water, x*DES 0.3, 30°C): 0.0506±0.0006 mole fraction
Mole fraction solubility (ChCl – TEG 1:2 + water, x*DES 0.3, 35°C): 0.0649±0.0005 mole fraction
Mole fraction solubility (ChCl – TEG 1:2 + water, x*DES 0.3, 40°C): 0.0862±0.0009 mole fraction
Mole fraction solubility (ChCl – TEG 1:2 + water, x*DES 0.4, 25°C): 0.0512±0.0003 mole fraction
Mole fraction solubility (ChCl – TEG 1:2 + water, x*DES 0.4, 30°C): 0.0664±0.0007 mole fraction
Mole fraction solubility (ChCl – TEG 1:2 + water, x*DES 0.4, 35°C): 0.0861±0.0005 mole fraction
Mole fraction solubility (ChCl – TEG 1:2 + water, x*DES 0.4, 40°C): 0.1133±0.0008 mole fraction
Mole fraction solubility (ChCl – TEG 1:2 + water, x*DES 0.5, 25°C): 0.0632±0.0004 mole fraction
Mole fraction solubility (ChCl – TEG 1:2 + water, x*DES 0.5, 30°C): 0.0790±0.0006 mole fraction
Mole fraction solubility (ChCl – TEG 1:2 + water, x*DES 0.5, 35°C): 0.1033±0.0010 mole fraction
Mole fraction solubility (ChCl – TEG 1:2 + water, x*DES 0.5, 40°C): 0.1413±0.0012 mole fraction
Mole fraction solubility (ChCl – TEG 1:2 + water, x*DES 0.6, 25°C): 0.0774±0.0005 mole fraction
Mole fraction solubility (ChCl – TEG 1:2 + water, x*DES 0.6, 30°C): 0.0946±0.0004 mole fraction
Mole fraction solubility (ChCl – TEG 1:2 + water, x*DES 0.6, 35°C): 0.1258±0.0012 mole fraction
Mole fraction solubility (ChCl – TEG 1:2 + water, x*DES 0.6, 40°C): 0.1692±0.0013 mole fraction
Mole fraction solubility (ChCl – TEG 1:2 + water, x*DES 0.7, 25°C): 0.0885±0.0008 mole fraction
Mole fraction solubility (ChCl – TEG 1:2 + water, x*DES 0.7, 30°C): 0.1119±0.0007 mole fraction
Mole fraction solubility (ChCl – TEG 1:2 + water, x*DES 0.7, 35°C): 0.1523±0.0007 mole fraction
Mole fraction solubility (ChCl – TEG 1:2 + water, x*DES 0.7, 40°C): 0.2060±0.0014 mole fraction
Mole fraction solubility (ChCl – TEG 1:2 + water, x*DES 0.8, 25°C): 0.1016±0.0009 mole fraction
Mole fraction solubility (ChCl – TEG 1:2 + water, x*DES 0.8, 30°C): 0.1348±0.0012 mole fraction
Mole fraction solubility (ChCl – TEG 1:2 + water, x*DES 0.8, 35°C): 0.1803±0.0006 mole fraction
Mole fraction solubility (ChCl – TEG 1:2 + water, x*DES 0.8, 40°C): 0.2401±0.0023 mole fraction
Mole fraction solubility (ChCl – TEG 1:2 + water, x*DES 0.9, 25°C): 0.1054 mole fraction and 0.1054±0.0008 mole fraction
Mole fraction solubility (ChCl – TEG 1:2 + water, x*DES 0.9, 30°C): 0.1368±0.0008 mole fraction
Mole fraction solubility (ChCl – TEG 1:2 + water, x*DES 0.9, 35°C): 0.1857±0.0007 mole fraction
Mole fraction solubility (ChCl – TEG 1:2 + water, x*DES 0.9, 40°C): 0.2507±0.0018 mole fraction
Mole fraction solubility (ChCl – TEG 1:2, x*DES 1.0 (neat DES), 25°C): 0.0997±0.0009 mole fraction
Mole fraction solubility (ChCl – TEG 1:2, x*DES 1.0 (neat DES), 30°C): 0.1304±0.0012 mole fraction
Mole fraction solubility (ChCl – TEG 1:2, x*DES 1.0 (neat DES), 35°C): 0.1773±0.0014 mole fraction
Mole fraction solubility (ChCl – TEG 1:2, x*DES 1.0 (neat DES), 40°C): 0.2433±0.0022 mole fraction
Increase in the solubility compared to the neat DES (ChCl-TEG 1:2, x*DES = 0.9 (xwater = 0.1)): 6%
Solubility increase between 25 °C and 40 °C (neat DES (x*DES = 1.0) involving betaine (Bet-GLY 1:2)): 205%
Solubility increase between 25 °C and 40 °C (neat DES (x*DES = 1.0) with choline chloride (ChCl-TEG 1:2)): 244%
